The values that follow come from publication PMC8162404, “Proteomimetic surface fragments distinguish targets by function” (Chemical Science, 2020).

The experiment concerns the target T1, CaM (Bos taurus, UniProt P62157).
T1 construct: made in house; host or cells: E. coli BL21 (DE3)
The experiment in a line: Pull-down assay with immobilized protein and LSM libraries. The class given is binding, bovine. The conditions noted are these: H12 library; 1:2 stoichiometry assumed; read-out: Surface mapping KD (apparent). How it is done: Pull-down assays with immobilized test proteins and foldameric LSM libraries were carried out. Proteins were equilibrated with LSM probes, and equilibrium bound fractions (FB) were determined from the unbound fractions measured by HPLC-MS methods. Hits were corrected with background binding of the resin. The protocol allowed all binding events to equilibrate irrespective of affinity, specificity, and binding kinetics. This was essential to judge overall druggability and promiscuity. Importantly, the concentration of protein and the total concentration of foldameric LSMs were equimolar, which minimized competition between the probes. This experimental setup approximated independent binding of individual library members. Results were visualized as heat maps of dissociation constants (Fig. 3).
Pull-down assay and data analysis
Pull-down assay. LSM sublibraries were screened separately as previously described.(2) Experiments were performed in the following buffers: (i) 20 mM pH 7.4 HEPES, 150 mM NaCl, 5 mM CaCl2 for CaM; (ii) 50 mM pH 7.4 HEPES, 150 mM NaCl, 1 mM TCEP, 1 mM CaCl2 for S100 proteins; (iii) 20 mM pH 7.4 HEPES, 150 mM NaCl, 1 mM TCEP for Gal-1 and (iv) 20 mM pH 7.4 HEPES, 150 mM NaCl for RecQ-WH. Assays were performed in paper filter spin cups (Thermo Scientific) with sample volumes of 100 µl. Hexahistidine-tagged proteins were immobilized on previously washed Co-NTA resin (TALON, Takara Bio USA, Inc., […]
LSM sublibrary was added, in which each of the 64 library members were used at a concentration of 1 µM. Samples were incubated at room temperature for 30 min with shaking at 100 rpm. Then, samples were centrifuged at 1000 rpm for 2 min and washed with 100 µl pull-down buffer to remove unbound compounds.
The control experiments were performed using the same compounds and the resin but without the immobilized protein. In case of competitive assays, competitor peptides were added to LSM sublibrary samples in 200 µM final concentration. In the case of Gal-1, lactose (competitor) was used in a concentration of 10 mM. Experiments were performed at least twice. Mean […]
LC-MS methods and parameters. HPLC/ESI-MS analysis was used to characterize the samples from the pull-down assay. LC-MS analysis was performed with a Thermo Scientific Dionex UltiMate 3000 HPLC system interfaced to an LTQ ion trap mass spectrometer (Thermo Electron Corp., San Jose, CA, USA). Samples were injected onto an Aeris Widepore XB-C18 (250 x 4.6 mm) analytical HPLC column using gradient elution 5-80 % solution B during 25 minutes. For pull-down samples, eluent composition was 0.1% acetic acid in distilled water (Solution A) and 0.1% acetic acid in acetonitrile (solution B). Mass spectra were acquired in full scan mode from 200 to 2000 m/z range. For overlapping peaks, selective reaction monitoring (SRM) was […]
MS data analysis. Thermo Xcalibur 2.2 software was used for peak identification and integration. The majority of the foldameric fragments could be resolved independently via HPLC-MS/MS measurements based on molecular weight, MS fragmentation pattern and retention time. Peaks of some foldamers with β3-hIle or β3-hLeu in position R2 could not be resolved, these were integrated and averaged. In the processing method, each sample component was associated to a chromatographic peak based on previously identified mass (m/z) and retention time (ref (2) and Table S7-10). Using ICIS peak detection algorithm, the general detection and integration criteria were: smoothing points: 5, baseline window: 80, area noise factor: 5, peak noise factor: 10. Using these processing setups, all raw data files were reprocessed together and analyzed. Errors in peak identification during the automatic processing were corrected manually.
Calculation of the discussed parameters
1. Bound fractions (FB.) were calculated from the HPLC-MS intensity loss of the LSM probes compared to the control where no protein was immobilized to the resin: […]
With `NC(=O)[C@H]1CCC[C@@H]1NC(=O)[C@H]1CCC[C@@H]1NC(=O)C[C@H](CO)NC(=O)[C@H]1CCC[C@@H]1NC(=O)[C@H]1CCC[C@@H]1NC(=O)C[C@H](CO)NC(=O)[C@H]1CCC[C@@H]1NC(=O)[C@H]1CCC[C@@H]1N` [H12 SS], the Kd was 480 µM.

Regarding `CC[C@H](C)[C@@H](CC(=O)N[C@H]1CCC[C@@H]1C(=O)N[C@H]1CCC[C@@H]1C(N)=O)NC(=O)[C@H]1CCC[C@@H]1NC(=O)[C@H]1CCC[C@@H]1NC(=O)C[C@H](CCC(N)=O)NC(=O)[C@H]1CCC[C@@H]1NC(=O)[C@H]1CCC[C@@H]1N` [H12 QI], the Kd was 263 µM.

Turning to `CC[C@H](C)[C@@H](CC(=O)N[C@H]1CCC[C@@H]1C(=O)N[C@H]1CCC[C@@H]1C(N)=O)NC(=O)[C@H]1CCC[C@@H]1NC(=O)[C@H]1CCC[C@@H]1NC(=O)C[C@H](CC(N)=O)NC(=O)[C@H]1CCC[C@@H]1NC(=O)[C@H]1CCC[C@@H]1N` [H12 NI], the Kd was determined as 214 µM.

`C[C@@H](CC(=O)N[C@H]1CCC[C@@H]1C(=O)N[C@H]1CCC[C@@H]1C(N)=O)NC(=O)[C@H]1CCC[C@@H]1NC(=O)[C@H]1CCC[C@@H]1NC(=O)C[C@H](CO)NC(=O)[C@H]1CCC[C@@H]1NC(=O)[C@H]1CCC[C@@H]1N` [H12 SA]: the Kd is 482 µM.

In the case of `CSCC[C@@H](CC(=O)N[C@H]1CCC[C@@H]1C(=O)N[C@H]1CCC[C@@H]1C(N)=O)NC(=O)[C@H]1CCC[C@@H]1NC(=O)[C@H]1CCC[C@@H]1NC(=O)C[C@H](CO)NC(=O)[C@H]1CCC[C@@H]1NC(=O)[C@H]1CCC[C@@H]1N` [H12 SM], the Kd was 340 µM.

Regarding `NC(=O)[C@H]1CCC[C@@H]1NC(=O)[C@H]1CCC[C@@H]1NC(=O)C[C@H](Cc1ccc(O)cc1)NC(=O)[C@H]1CCC[C@@H]1NC(=O)[C@H]1CCC[C@@H]1NC(=O)C[C@H](CO)NC(=O)[C@H]1CCC[C@@H]1NC(=O)[C@H]1CCC[C@@H]1N` [H12 SY], the Kd is 351 µM.

Take `C[C@@H](O)[C@@H](CC(=O)N[C@H]1CCC[C@@H]1C(=O)N[C@H]1CCC[C@@H]1C(N)=O)NC(=O)[C@H]1CCC[C@@H]1NC(=O)[C@H]1CCC[C@@H]1NC(=O)C[C@H](CCC(N)=O)NC(=O)[C@H]1CCC[C@@H]1NC(=O)[C@H]1CCC[C@@H]1N` [H12 QT]: the Kd was 447 µM.

Turning to `NC(=O)C[C@@H](CC(=O)N[C@H]1CCC[C@@H]1C(=O)N[C@H]1CCC[C@@H]1C(=O)N[C@@H](CC(=O)O)CC(=O)N[C@H]1CCC[C@@H]1C(=O)N[C@H]1CCC[C@@H]1C(N)=O)NC(=O)[C@H]1CCC[C@@H]1NC(=O)[C@H]1CCC[C@@H]1N` [H12 ND], the Kd was determined as 400 µM.

Take `NC(=O)CC[C@@H](CC(=O)N[C@H]1CCC[C@@H]1C(=O)N[C@H]1CCC[C@@H]1C(=O)N[C@@H](CC(=O)O)CC(=O)N[C@H]1CCC[C@@H]1C(=O)N[C@H]1CCC[C@@H]1C(N)=O)NC(=O)[C@H]1CCC[C@@H]1NC(=O)[C@H]1CCC[C@@H]1N` [H12 QD]: the Kd came to 433 µM.

Take `CC(C)C[C@@H](CC(=O)N[C@H]1CCC[C@@H]1C(=O)N[C@H]1CCC[C@@H]1C(N)=O)NC(=O)[C@H]1CCC[C@@H]1NC(=O)[C@H]1CCC[C@@H]1NC(=O)C[C@H](CC(N)=O)NC(=O)[C@H]1CCC[C@@H]1NC(=O)[C@H]1CCC[C@@H]1N` [H12 NL]: the Kd worked out at 214 µM.

For the compound `NC(=O)C[C@@H](CC(=O)N[C@H]1CCC[C@@H]1C(=O)N[C@H]1CCC[C@@H]1C(N)=O)NC(=O)[C@H]1CCC[C@@H]1NC(=O)[C@H]1CCC[C@@H]1NC(=O)C[C@H](CO)NC(=O)[C@H]1CCC[C@@H]1NC(=O)[C@H]1CCC[C@@H]1N` [H12 SN], the Kd worked out at 493 µM.

For the compound `CSCC[C@@H](CC(=O)N[C@H]1CCC[C@@H]1C(=O)N[C@H]1CCC[C@@H]1C(N)=O)NC(=O)[C@H]1CCC[C@@H]1NC(=O)[C@H]1CCC[C@@H]1NC(=O)C[C@H](CC(N)=O)NC(=O)[C@H]1CCC[C@@H]1NC(=O)[C@H]1CCC[C@@H]1N` [H12 NM], the Kd worked out at 378 µM.

Take `C[C@@H](CC(=O)N[C@H]1CCC[C@@H]1C(=O)N[C@H]1CCC[C@@H]1C(N)=O)NC(=O)[C@H]1CCC[C@@H]1NC(=O)[C@H]1CCC[C@@H]1NC(=O)C[C@@H](NC(=O)[C@H]1CCC[C@@H]1NC(=O)[C@H]1CCC[C@@H]1N)[C@@H](C)O` [H12 TA]: the Kd worked out at 392 µM.
